The record followed here is ChEMBL document CHEMBL3046429, “Synthesis, molecular modeling study, preliminary antibacterial, and antitumor evaluation of N-substituted naphthalimides and their structural analogues” (2013).

What all share (format): functional
One assay relates to A498. The assay can be described thus: Growth inhibition of Homo sapiens (human) A498 cells at 10 uM after 48 hr by coulter counter analysis. Conditions: A498, 48 h, read-out: GI.
The subject of the next assay is HCC 2998. The assay can be described thus: Growth inhibition of Homo sapiens (human) HCC2998 cells at 10 uM after 48 hr by coulter counter analysis. Conditions: HCC 2998, 48 h, read-out: GI.
For a further assay, the system named is PC-3. The assay can be described thus: Growth inhibition of Homo sapiens (human) PC3 cells at 10 uM after 48 hr by coulter counter analysis. Conditions: PC-3, 48 h, read-out: GI.
The next assay has as its system OVCAR-5. The assay can be described thus: Growth inhibition of Homo sapiens (human) OVCAR5 cells at 10 uM after 48 hr by coulter counter analysis. Conditions: OVCAR-5, 48 h, read-out: GI.
For a further assay, the system named is Staphylococcus aureus. The assay can be described thus: Antibacterial activity against Staphylococcus aureus assessed as growth inhibition after 24 hr by two fold serial dilution method.
In a further assay the test system is M14. The assay can be described thus: Growth inhibition of Homo sapiens (human) M14 cells at 10 uM after 48 hr by coulter counter analysis. Conditions: M14, 48 h, read-out: GI.
The next assay has as its system HCT-116. The assay can be described thus: Growth inhibition of Homo sapiens (human) HCT116 cells at 10 uM after 48 hr by coulter counter analysis. Conditions: HCT-116, 48 h, read-out: GI.
Another assay concerns K562. The assay can be described thus: Growth inhibition of Homo sapiens (human) K562 cells at 10 uM after 48 hr by coulter counter analysis. Conditions: K562, 48 h, read-out: GI.
The subject of the next assay is SN12C. The assay can be described thus: Growth inhibition of Homo sapiens (human) SN12C cells at 10 uM after 48 hr by coulter counter analysis. Conditions: read-out: GI.
A further assay has as its system RPMI-8226. The assay can be described thus: Growth inhibition of Homo sapiens (human) RPMI8226 cells at 10 uM after 48 hr by coulter counter analysis. Conditions: RPMI-8226, 48 h, read-out: GI.
Another assay concerns Pseudomonas aeruginosa. The assay can be described thus: Antibacterial activity against Pseudomonas aeruginosa assessed as growth inhibition after 24 hr by two-fold serial dilution method.
The subject of another assay is NCI-H23. The assay can be described thus: Growth inhibition of Homo sapiens (human) NCI-H23 cells at 10 uM after 48 hr by coulter counter analysis. Conditions: NCI-H23, 48 h, read-out: GI.
In another assay the test system is Hs-578T. The assay can be described thus: Growth inhibition of Homo sapiens (human) Hs 578T cells at 10 uM after 48 hr by coulter counter analysis. Conditions: read-out: GI.
Another assay relates to SK-MEL-2. The assay can be described thus: Growth inhibition of Homo sapiens (human) SK-MEL-2 cells at 10 uM after 48 hr by coulter counter analysis. Conditions: SK-MEL-2, 48 h, read-out: GI.
A further assay deals with NCI-H460. The assay can be described thus: Growth inhibition of Homo sapiens (human) NCI-H460 cells at 10 uM after 48 hr by coulter counter analysis. Conditions: NCI-H460, 48 h, read-out: GI.
A further assay deals with NCI-H522. The assay can be described thus: Growth inhibition of Homo sapiens (human) NCI-H522 cells at 10 uM after 48 hr by coulter counter analysis. Conditions: NCI-H522, 48 h, read-out: GI.
Another assay concerns SNB-19. The assay can be described thus: Growth inhibition of Homo sapiens (human) SNB19 cells at 10 uM after 48 hr by coulter counter analysis. Conditions: SNB-19, 48 h, read-out: GI.
The test system of another assay is MOLT-4. The assay can be described thus: Growth inhibition of Homo sapiens (human) MOLT4 cells at 10 uM after 48 hr by coulter counter analysis. Conditions: MOLT-4, 48 h, read-out: GI.
The subject of a further assay is HOP-92. The assay can be described thus: Growth inhibition of Homo sapiens (human) HOP92 cells at 10 uM after 48 hr by coulter counter analysis. Conditions: HOP-92, 48 h, read-out: GI.
In another assay the test system is MCF7. The assay can be described thus: Growth inhibition of Homo sapiens (human) MCF7 cells at 10 uM after 48 hr by coulter counter analysis. Conditions: MCF7, 48 h, read-out: GI.
A further assay concerns Malme-3M. The assay can be described thus: Growth inhibition of Homo sapiens (human) MALME-3M cells at 10 uM after 48 hr by coulter counter analysis. Conditions: read-out: GI.

Converted amounts (≈) assume the structure as drawn.

A word on the MIC: it is the smallest concentration in the dilution series that meets the test's criterion for growth inhibition. With `O=C1c2nccnc2C(=O)N1c1c(Cl)cc(Cl)cc1Cl`, the inhibition of growth at 10 µM with A498 was 20.9%; in the assay with HCC 2998, -4.24%; with PC-3, 22.7%; in the assay on OVCAR-5 it was -1.7%; in the assay with M14, 3.32%; with HCT-116, 1.17%. Moreover, the inhibition of growth at 10 µM was 10.1% in the assay with K562; 22.7% in the assay with SN12C; 4.32% in the assay with RPMI-8226; 0.61% with NCI-H23; 15.3% in the assay with Hs-578T; -0.16% in the assay on SK-MEL-2. The inhibition of growth at 10 µM in the assay on NCI-H460 is -7.91%; in the assay with NCI-H522 it was 14.9%; in the assay on SNB-19, -2.3%; in the assay on MOLT-4 it was 1.21%; with HOP-92, 57.1%; in the assay with MCF7, 3.64%. In the assay with Malme-3M, the inhibition of growth at 10 µM was 21.1%. Also, the “-logMIC” value in the assay on Staphylococcus aureus was found to be 4.22. For the same molecule, the MIC came out at 20 µg/mL (≈ 60.9 µM) in the assay with Staphylococcus aureus (Staphylococcus aureus, 24 h) and 20 µg/mL (≈ 60.9 µM) in the assay with Pseudomonas aeruginosa.
